Values after ≈ are worked out from the molar mass of the structure shown. Where two headings read alike, the source gives them in different places.
Legend:
Ch. cochliodes OT7b = test: Resistance to biocides: ascospore germination; format: cell-based; details: strain OT7b, indoor Ch. cochliodes
Protocol: (§1) The toxicity of biocides and chemicals towards the indoor Chaetomium-like isolates and the reference indoor strains of the genera Aspergillus, Paecilomyces, Penicillium and Trichoderma was assessed in parallel with the six parameters presented in the Supplementary Materials: (1) germ tube assay (Figure S3); (2) estimation of turbidity (Figure S4); (3) visual emission of fluorescence (excitation at 360 nm); (4) visual resporulation of conidia; (5) inhibition of glucose consumption; and (6) resazurin reduction. All assays were performed in malt extract broth (12 g L^−1 malt extract, 7.2 µmol mL^−1 glucose, pH 5.5; Scharlab, Barcelona, Spain) in 96-well microtiter plates as described for the ICP assay.
(§2) The assays measuring inhibition of germination of conidia were done with spore suspensions of 1–2 × 10^6 fungal spores mL−^1. The tests were performed in malt extract broth (Oxoid, Hampshire United Kingdom) 12 g in 1 L, pH 5.5, glucose 7.1 mmol L^−1, and performed on microtiter plates as described by Bencsik et al. for the ICP assay. The germ tube germination is visualized in Figure S3, and the tests estimating turbidity and emission of fluorescence provoked by the germinated and metabolically active conidia and C. globosum ascospores are visualized in Figures S4 and S5. Examples of the tests estimating fluorescence emission, turbidity and re-sporulation of conidia and ascospores are compared in Figure S5. The difference of the endpoints measured with the different assays was between […]. The resazurin reduction assays (Figure S6) were performed as described for the ICP assay, except that the microtiter plates were visually inspected for the change of the blue/violet color of resazurin (indicating inhibition of germination of the exposed conidia) to the […] (indicating metabolic activity and germination of the exposed conidia).
(§3) The formation of germ tubes was inspected by a phase-contrast microscope (Olympus CKX41, Tokyo, Japan; magnification 400×) and an image recording software (Cellsense® standard version 11.0.06, Olympus Soft Imaging Solutions GmbH, Münster, Germany, 2012) after 1 and 2 days of incubation at 28 °C. The EC50 corresponded to the inhibition of 50% (estimated as the concentration between EC0 and EC100) of the conidia compared to the ethanol control (the growth medium containing 1% of ethanol). The tests were run in triplicate and calibrated with triclosan (CAS: 3380-34-5; Sigma Chemical Co., St. Louis, MO, USA) giving a mean SD of ±<20%.

Ch. cochliodes OT7 = test: Resistance to biocides: ascospore germination; format: cell-based; details: strain OT7, indoor Ch. cochliodes
Protocol: as §1, §2, §3

Ch. rectangulare M015 = test: Resistance to biocides: ascospore germination; format: cell-based; details: strain M015, indoor Ch. rectangulare
Protocol: as §1, §2, §3

Ch. rectangulare Mo13 = test: Resistance to biocides: ascospore germination; format: cell-based
Protocol: as §1, §2, §3

[1] = tested on: Outdoor Chaetomium-like strain CH1/tu; test: Resistance to biocides: ascospore germination; format: cell-based, Unidentified Chaetomium-like strain
Protocol: as §1
The assays measuring inhibition of germination of conidia were done with spore suspensions of 1–2 × 10^6 fungal spores mL−^1. […] The germ tube germination is visualized in Figure S3, and the tests estimating turbidity and emission of fluorescence provoked by the germinated and metabolically active conidia and C. globosum ascospores are visualized in Figures S4 and S5. Examples of the tests estimating fluorescence emission, turbidity and re-sporulation of conidia and ascospores are compared in Figure S5. The difference of the endpoints measured with the different assays was between 38% and <28.5%. […]

[2] = tested on: Aspergillus section Flavi 1/37; test: Resistance to biocides: conidial germination; format: cell-based; details: strain 1/37, indoor Aspergillus section Flavi
Protocol: as §1, §2, §3

[3] = tested on: Indoor Trichoderma atroviride KIV10; test: Resistance to biocides: conidial germination; format: cell-based; details: strain KIV10, indoor Trichoderma atroviride
Protocol: as §1, §2, §3

[4] = tested on: Indoor Trichoderma atroviride Tri335; test: Resistance to biocides: conidial germination; format: cell-based; details: strain Tri335, indoor Trichoderma atroviride
Protocol: as §1, §2, §3

[5] = tested on: Paecilomyces sp. Pec1/skk; test: Resistance to biocides: conidial germination; format: cell-based; details: strain Pec1/skk, indoor Paecilomyces sp.
Protocol: as §1, §2, §3

[6] = tested on: Trichoderma longibrachiatum THG; test: Resistance to biocides: conidial germination; format: cell-based; details: strain THG, indoor Trichoderma longibrachiatum
Protocol: as §1, §2, §3

[7] = tested on: Outdoor T. atroviride SZMC 12323; test: Resistance to biocides: conidial germination; format: cell-based, Trichoderma atroviride; details: strain SZMC 12323, outdoor T. atroviride
Protocol: as §1, §2, §3

[8] = tested on: Outdoor T. atroviride SZMC 12474; test: Resistance to biocides: conidial germination; format: cell-based, Trichoderma atroviride; details: strain SZMC 12474, outdoor T. atroviride
Protocol: as §1, §2, §3

[9] = tested on: Outdoor T. atroviride SZMC 12516; test: Resistance to biocides: conidial germination; format: cell-based, Trichoderma atroviride; details: strain SZMC 12516, outdoor T. atroviride
Protocol: as §1, §2, §3

[10] = tested on: Outdoor T. atroviride SZMC 12541; test: Resistance to biocides: conidial germination; format: cell-based, Trichoderma atroviride; details: strain SZMC 12541, outdoor T. atroviride
Protocol: as §1, §2, §3

[11] = tested on: Outdoor T. atroviride SZMC 1723; test: Resistance to biocides: conidial germination; format: cell-based, Trichoderma atroviride; details: strain SZMC 1723, outdoor T. atroviride
Protocol: as §1, §2, §3

[12] = tested on: Outdoor T. atroviride SZMC 207080; test: Resistance to biocides: conidial germination; format: cell-based, Trichoderma atroviride; details: strain SZMC 207080, outdoor T. atroviride
Protocol: as §1, §2, §3

boar spermatozoa = test: cells; format: cell-based; details: Spermatozoa; motile boar sperm, 2 h, 37 °C; read-out: EC50 SMIDM Boar Sperm 2 h
[13] = Trichoderma atroviride, read-out: EC50

Row | Compound | EC50 (Ch. cochliodes OT7b; read-out: EC50) [µg/mL] | EC50 (Ch. cochliodes OT7; read-out: EC50) [µg/mL] | EC50 (Ch. rectangulare M015; read-out: EC50) [µg/mL] | EC50 ([2]; FLAVI1/37, read-out: EC50) [µg/mL] | EC50 ([3]; read-out: EC50) [µg/mL] | EC50 ([4]; read-out: EC50) [µg/mL] | EC50 ([5]; read-out: EC50) [µg/mL] | EC50 ([6]; read-out: EC50) [µg/mL] | EC50 [7, 13] [µg/mL] | EC50 [8, 13] [µg/mL] | EC50 [9, 13] [µg/mL] | EC50 [10, 13] [µg/mL] | EC50 [11, 13] [µg/mL] | EC50 [12, 13] [µg/mL] | EC50 (Ch. rectangulare M015) [µg/mL] | EC50 [2] [µg/mL] | EC50 [3] [µg/mL] | EC50 [7] [µg/mL] | EC50 [8] [µg/mL] | EC50 [9] [µg/mL] | also measured
1 | O=BOB(O)OB(O)OB=O [Borax, sodium tetraborate] | 750 | 750 | 5000 | 5000 | 2500 | 2500 | ≥ 5000 | 1200 | 1200 | 2500 | 2500 | 1200 | 1200 | 1200 | – | – | – | – | – | – | EC50 (Ch. rectangulare Mo13): > 5000 µg/mL; EC50 ([1]; read-out: EC50): 1200 µg/mL
2 | polyhexamethylene biguanide hydrochloride [PHMB] | – | – | – | – | – | – | – | – | – | – | – | – | – | – | 4 | 120 | 4 | 8 | 4 | 30 | EC50 (Ch. cochliodes OT7b): 8 µg/mL; EC50 (Ch. cochliodes OT7): 8 µg/mL; EC50 (Ch. rectangulare Mo13; strain Mo13, indoor Ch. rectangulare): 4 µg/mL; EC50 [1]: 4 µg/mL; EC50 [4]: 4 µg/mL; EC50 [5]: 16 µg/mL; EC50 [6]: 1 µg/mL; EC50 [10]: 2 µg/mL; EC50 [11]: 8 µg/mL; EC50 [12]: 8 µg/mL
3 | OCCOc1ccccc1 [Phenoxy-ethanol, phenoxyethanol] | 3000 (≈ 21.7 mM) | 3000 (≈ 21.7 mM) | 1500 (≈ 10.9 mM) | 1500 (≈ 10.9 mM) | 3000 (≈ 21.7 mM) | 3000 (≈ 21.7 mM) | 3000 (≈ 21.7 mM) | 1500 (≈ 10.9 mM) | 1500 (≈ 10.9 mM) | 3000 (≈ 21.7 mM) | 1500 (≈ 10.9 mM) | 1500 (≈ 10.9 mM) | 1500 (≈ 10.9 mM) | 3000 (≈ 21.7 mM) | – | – | – | – | – | – | –
4 | C/C1=C\[C@@H](C)C/C=C/[C@H]2[C@@H]3O[C@]3(C)[C@@H](C)[C@H]3[C@H](Cc4c[nH]c5ccccc45)NC(=O)[C@]32C(=O)/C=C/C(=O)[C@@H]1O [Chaetoglobosin A, chaetoglobosin A] | – | – | – | – | – | – | – | – | – | – | – | – | – | – | – | – | – | – | – | – | EC50 (boar spermatozoa): 12 µg/mL (≈ 0.0227 mM)
5 | NCl [Chloramine, chloramine] | – | – | – | – | – | – | – | – | – | – | – | – | – | – | 1200 (≈ 23.3 mM) | 600 (≈ 11.7 mM) | 2400 (≈ 46.6 mM) | 2500 (≈ 48.6 mM) | 2500 (≈ 48.6 mM) | 2500 (≈ 48.6 mM) | EC50 [10]: 2500 µg/mL (≈ 48.6 mM); EC50 [11]: 2500 µg/mL (≈ 48.6 mM); EC50 [12]: 2500 µg/mL (≈ 48.6 mM)
6 | Oc1cc(Cl)ccc1Oc1ccc(Cl)cc1Cl [Triclosan, 5-Chloro-2-(2,4-dichlorophenoxy)phenol] | 4 (≈ 0.0138 mM) | 4 (≈ 0.0138 mM) | 2 (≈ 0.00691 mM) | 8 (≈ 0.0276 mM) | 30 (≈ 0.104 mM) | 30 (≈ 0.104 mM) | 4 (≈ 0.0138 mM) | 16 (≈ 0.0553 mM) | 30 (≈ 0.104 mM) | 8 (≈ 0.0276 mM) | 16 (≈ 0.0553 mM) | 16 (≈ 0.0553 mM) | 16 (≈ 0.0553 mM) | 8 (≈ 0.0276 mM) | – | – | – | – | – | – | –
